# Results reported in PMC10783051 (Microbiology Spectrum, 2023).
# What was measured:
# Streptomyces = details: cited from earlier work
# Source text: As soils are carbon-rich and nitrogen-poor environments, exogenous CLP degradation may thus represent a foraging strategy for Streptomyces to access alternative sources of nutriments directly emanating from diverse microbial competitors. We assume that, in this ...
# [1] = tested on: Streptomyces venezuelae ATCC 10712; experiment: In planta co-inoculation on tomato roots, UPLC-MS of rhizosphere extracts; details: tomato roots on Hoagland agar, 7 days at 22°C, UPLC-MS of agar near the roots, four biological replicates
# Procedure: For the in planta studies, tomato seeds (Solanum lycopersicum var. Moneymaker) were sterilized following the protocol described by ([26]). Briefly, tomato seeds were primarily sterilized in 70% ethanol (vol/vol) by gently shaking for 2 min. Further, the ethanol was removed and the seeds were added to 50 mL of the sterilization solution [4.5 mL of bleach containing 9.5% (vol/vol) of active chlorine, 0.01 g of Tween 80, and 45.5 mL of sterile water] and gently shaken for 10 min. Seeds were thereafter washed 10 times with water to eliminate sterilization solution residues. […]
# All UPLC-MS analyses were performed using an Agilent 1290 Infinity II coupled with a diode array detector and a mass detector (Jet Stream ESI-Q-TOF 6530) in positive mode with the parameters set up as follows: capillary voltage of 3.5 kV, nebulizer pressure of 35 lb/in^2, drying gas of 8 L/min, drying gas temperature of 300°C, flow rate of sheath gas of 11 L/min, sheath gas temperature of 350°C, fragmentor voltage of 175 V, skimmer voltage of 65 V, and octopole radiofrequency of 750 V. Accurate mass spectra were recorded in the m/z range of 300–1,700. […]
# [2] = tested on: Streptomyces venezuelae ATCC 10712; experiment: Confrontation assay B. velezensis GA1 / S. venezuelae on REM plate, UPLC-MS metabolite profiling of the agar
# Procedure: Confrontation assays were performed on square Petri dishes (12 × 12 cm) with 40 mL of REM solid medium at 26°C (REM supplemented with 14 g/L of agar).
# S. venezuelae ATCC 10712 was inoculated as stripes (1 × 12 cm) in the middle of the plate with 40 µL of spore suspension (10^7 spores/mL) and spread with a cotton swab. Next, B. velezensis GA1 cells were collected from fresh precultures as described and adjusted to OD600 nm 0.1. Then, 5 µL of B. velezensis GA1 suspension was spotted at 1 cm of the Streptomyces line. Control plates were done following the same procedure without the inoculation of either Bacillus or Streptomyces. Plates were then incubated for 3 days at 26°C in the dark. Pictures of the plates were then captured using a CoolPix camera (NIKKOR ×60 wide optical zoom extra-low dispersion vibration reduction 4.3–258.0 mm 1:33 to 6.5).
# The extraction of the metabolites from the agar was performed as follows. For the confrontation experiment, we precisely sampled the area of agar (2 × 1 cm) near the colony of Bacillus or Streptomyces (the confrontation zone is 1 cm wide) with standardized plugs. For the in planta, we sampled the agar area (1 × 1 cm) near the tomato roots. In both cases, the agar samples were transferred to Eppendorf tubes and placed for 24 h at −20°C. Then, the agar was thawed at room temperature and centrifuged for 10 min at 13,000 rpm. The supernatants were then collected and filtered (0.22-µm pore size filters) before UPLC-MS analysis.
# All UPLC-MS analyses were performed using an Agilent 1290 Infinity II coupled with a diode array detector and a mass detector (Jet Stream ESI-Q-TOF 6530) in positive mode with the parameters set up as follows: capillary voltage of 3.5 kV, nebulizer pressure of 35 lb/in^2, drying gas of 8 L/min, drying gas temperature of 300°C, flow rate of sheath gas of 11 L/min, sheath gas temperature of 350°C, fragmentor voltage of 175 V, skimmer voltage of 65 V, and octopole radiofrequency of 750 V. Accurate mass spectra were recorded in the m/z range of 300–1,700. For untargeted MS/MS, we used the same MS1 parameters as described. We added MS2 untargeted acquisition mode with the parameters as follows: MS/MS range 50–1,700 m/z; MS/MS scan rate 3 spectra/s; isolation width MS/MS medium (approx. 4 AMU), Decision Engine Native; fixed collision energies of 25 and 40 V for surfactin, 50 V for iturin, and 60 V for fengycin experiments; precursor selection: three for the surfactin experiment, four for the iturin and fengycin experiments, threshold 1,500 (Abs), isotope model common, active exclusion after two spectra and release after 0.5 min, sorting the precursors by charge state then abundance (charge state preference 1). For targeted MS/MS, we used the same MS1 parameters MS/MS range of 50–1,700 m/z or 50–3,200 (when required for Pseudomonas CLPs with mass >1,700 Da), MS/MS scan rate 3 spectra/s, isolation width MS/MS narrow (approx. 1.3 amu), and fixed collision energies 20, 40, and 60V. In all experiments, a C18 Acquity UPLC ethylene bridged hybrid column (2.1 mm × 50 mm × 1.7 µm; Waters Corporation, Milford, MA, USA) was used at a flow rate of 0.6 mL/min and a temperature of 40°C. The injection volume was 20 µL, and the diode array detector scanned a wavelength spectrum between 190 and 600 nm. Unless otherwise mentioned, a gradient of acidified water (0.1% formic acid) (solvent A) and of acidified acetonitrile (0.1% formic acid) (solvent B) was used as mobile phase with a constant flow rate of 0.6 mL/min, starting at 10% B and rising to 100% B in 20 min. Solvent B was kept at 100% for 4 min before going back to the initial ratio. MassHunter Workstation (version 10.0) and ChemStation software were used for data collection and analysis. For untargeted analysis of iturin and fengycin degradation products, we used the same solvent and flow rate, starting at 10% B to 20% in 2 min, then rising to 50% B at 14 min and 100% B at 25 min, followed by 100% B and 5 at 10% B at 6 min.
# tobacco cells = details: cited from earlier work
# Source text: Additionally, CLPs are key multifunctional BSMs whose biocontrol-associated activities often involve membrane perturbation and pore formation ([16]). This CLP-membrane interaction is enabled by the peculiar amphiphilic three-dimensional structures of those CLPs ([17], [18]). However, since the degradation alters their structures, it is likely associated with a loss of function. […] Likewise, linearization of su ...
substance,measurement,setting,value
surfactin,effect on aerial mycelium formation of Streptomyces,Streptomyces,inhibitory effect
same,linear forms in rhizosphere extracts upon co-inoculation of Bv with Sv,[1],high proportion of linear
same,abundance of the CLP in the confrontation zone compared with monocultures,[2],decrease in the abundance
same,shorter CLP fragment detected in the confrontation zone but not in Bv monoculture,[2],loss of the fatty acid from the linear form
same,effect of linearization on the potential to stimulate immune-related defense responses,tobacco cells,almost full loss
